Patent US6492385B2, “Quinuclidine-substituted heteroaryl moieties for treatment of disease” (Pharmacia & Upjohn Company, priority 2000, dated 2002)
pKi: −log10 of the molar value. Structures can show the parent of a compound that is named as a salt.

Target: α7 nAChR (Rattus norvegicus, UniProt Q05941)
Assay: [3H]-MLA competition binding assay, rat brain membranes

Sequence of α7 nAChR (Q05941 23-502): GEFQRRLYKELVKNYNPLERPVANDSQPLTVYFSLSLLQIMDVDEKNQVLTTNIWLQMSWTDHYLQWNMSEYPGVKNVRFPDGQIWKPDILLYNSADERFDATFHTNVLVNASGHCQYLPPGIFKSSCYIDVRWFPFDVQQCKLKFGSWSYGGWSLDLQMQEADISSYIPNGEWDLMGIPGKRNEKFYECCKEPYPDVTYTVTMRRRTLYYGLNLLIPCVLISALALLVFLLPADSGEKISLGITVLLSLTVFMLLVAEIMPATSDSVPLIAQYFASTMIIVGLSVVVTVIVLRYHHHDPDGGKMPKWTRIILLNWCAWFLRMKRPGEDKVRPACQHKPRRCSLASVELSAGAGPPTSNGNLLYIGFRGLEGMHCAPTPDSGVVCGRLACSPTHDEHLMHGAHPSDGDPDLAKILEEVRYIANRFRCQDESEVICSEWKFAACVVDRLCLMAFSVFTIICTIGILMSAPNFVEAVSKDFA

Compound | pKi
COc1ccc(C(=O)N[C@H]2CN3CCC2CC3)s1 [Example 19, N-[(3R)-1-Azabicyclo[2.2.2]oct-3-yl]-5-methoxy-thiophene-2-carboxamide Hydrochloride] | 8.40 to 8.70
O=C(N[C@H]1CN2CCC1CC2)c1ccc(-c2ccccc2O)s1 [Example 41, N-[(3R)-1-Azabicyclo[2.2.2]oct-3-yl]-5-(2-hydroxyphenyl)-thiophene-2-carboxamide Hydrochloride] | 8.40 to 8.52
